Source: ChEMBL document CHEMBL4002647, “BMS-933043, a Selective α7 nAChR Partial Agonist for the Treatment of Cognitive Deficits Associated with Schizophrenia” (ACS Med Chem Lett, 2017)
The source made the active and inactive calls. No cut-off for these calls is given here.

Key:
[1] = Oral bioavailability in cynomolgus monkey at 5 mg/kg; type: ADME, organism-based, Macaca fascicularis; conditions: in vivo
[2] = biological target: T1, Neuronal acetylcholine receptor subunit alpha-7 (Rattus norvegicus, UniProt Q05941); test: Agonist activity at rat alpha7 nAChR expressed in HEK293 cells co-expressing human RIC3 assessed as area under current curve at holding potential of -90 mV by whole-cell voltage clamp electrophysiology method; type: cell-based
T1 sequence (Q05941 whole entry): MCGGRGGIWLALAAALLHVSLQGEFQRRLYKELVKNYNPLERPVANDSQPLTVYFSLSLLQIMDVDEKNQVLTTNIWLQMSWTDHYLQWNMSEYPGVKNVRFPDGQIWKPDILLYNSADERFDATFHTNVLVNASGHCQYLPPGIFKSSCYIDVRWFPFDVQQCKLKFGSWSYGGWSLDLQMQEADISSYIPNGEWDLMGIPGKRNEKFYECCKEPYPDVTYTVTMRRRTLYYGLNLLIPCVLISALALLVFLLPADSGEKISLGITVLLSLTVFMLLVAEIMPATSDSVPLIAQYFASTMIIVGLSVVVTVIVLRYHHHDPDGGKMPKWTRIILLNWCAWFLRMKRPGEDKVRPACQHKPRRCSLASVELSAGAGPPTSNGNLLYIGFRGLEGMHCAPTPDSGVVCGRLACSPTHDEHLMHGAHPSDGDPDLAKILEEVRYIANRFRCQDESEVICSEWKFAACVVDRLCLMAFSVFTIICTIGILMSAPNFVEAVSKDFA

Cytochrome P450 3A4 [3] = biological target: T2, Cytochrome P450 3A4 (Homo sapiens, UniProt P08684); test: Inhibition of recombinant human CYP3A4 using fluorogenic substrate BZR preincubated for 30 mins and measured after 20 to 60 mins in presence of NADPH regenerating system by fluorescence assay; type: ADME
T2 sequence (P08684 whole entry, the tested form may be a part): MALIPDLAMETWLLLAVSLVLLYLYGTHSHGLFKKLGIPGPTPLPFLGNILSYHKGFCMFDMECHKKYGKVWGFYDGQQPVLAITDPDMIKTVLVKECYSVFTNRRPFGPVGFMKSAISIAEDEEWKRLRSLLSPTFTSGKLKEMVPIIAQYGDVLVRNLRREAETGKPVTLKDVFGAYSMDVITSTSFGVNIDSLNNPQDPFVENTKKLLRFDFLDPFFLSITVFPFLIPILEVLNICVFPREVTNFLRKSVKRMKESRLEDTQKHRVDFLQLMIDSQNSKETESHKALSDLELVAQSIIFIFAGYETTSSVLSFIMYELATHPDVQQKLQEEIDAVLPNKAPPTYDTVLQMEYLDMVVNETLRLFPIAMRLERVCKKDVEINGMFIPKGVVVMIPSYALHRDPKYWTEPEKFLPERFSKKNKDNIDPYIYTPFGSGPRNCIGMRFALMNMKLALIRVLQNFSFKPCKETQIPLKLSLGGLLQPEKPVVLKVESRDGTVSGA

[4] = Total plasma clearance in rat at 1 mg/kg, iv administered as 5 mins infusion; type: ADME, organism-based
Cytochrome P450 2B6 = Cytochrome P450 2B6 (Homo sapiens, UniProt P20813); test: Inhibition of recombinant human CYP2B6 using fluorogenic substrate preincubated for 30 mins and measured after 20 to 60 mins in presence of NADPH regenerating system by fluorescence assay; type: ADME
Sequence of Cytochrome P450 2B6 (P20813 whole entry): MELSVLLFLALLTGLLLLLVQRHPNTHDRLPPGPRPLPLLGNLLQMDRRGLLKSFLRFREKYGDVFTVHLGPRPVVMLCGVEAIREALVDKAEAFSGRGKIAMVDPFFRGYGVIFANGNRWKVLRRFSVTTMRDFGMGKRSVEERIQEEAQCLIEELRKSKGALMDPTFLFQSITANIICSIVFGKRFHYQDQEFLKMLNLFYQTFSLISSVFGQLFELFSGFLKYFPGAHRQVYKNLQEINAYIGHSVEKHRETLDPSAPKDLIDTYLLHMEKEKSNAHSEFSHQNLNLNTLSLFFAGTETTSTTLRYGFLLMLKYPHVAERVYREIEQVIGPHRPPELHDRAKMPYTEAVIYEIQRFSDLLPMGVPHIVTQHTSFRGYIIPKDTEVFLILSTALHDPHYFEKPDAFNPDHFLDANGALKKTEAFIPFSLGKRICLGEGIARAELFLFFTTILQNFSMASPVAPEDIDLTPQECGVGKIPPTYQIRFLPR

[5] = Metabolic stability in mouse liver microsomes assessed as compound remaining at 3 uM after 10 mins by LC-MS/MS analysis; type: ADME, microsome; conditions: read-out: Stability
[6] = Oral bioavailability in mouse at 10 mg/kg; type: ADME, organism-based; conditions: in vivo
[7] = Metabolic stability in rat liver microsomes assessed as compound remaining at 3 uM after 10 mins by LC-MS/MS analysis; type: ADME, microsome; conditions: read-out: Stability
[8] = Half life in mouse at 1 mg/kg, iv administered as 5 mins infusion; type: ADME, organism-based; conditions: in vivo
[9] = biological target: Muscarinic acetylcholine receptor M1 (Homo sapiens) (UniProt P11229); test: Activity at human muscarinic M1 receptor
Sequence of Muscarinic acetylcholine receptor M1 (Homo sapiens) (P11229 whole entry): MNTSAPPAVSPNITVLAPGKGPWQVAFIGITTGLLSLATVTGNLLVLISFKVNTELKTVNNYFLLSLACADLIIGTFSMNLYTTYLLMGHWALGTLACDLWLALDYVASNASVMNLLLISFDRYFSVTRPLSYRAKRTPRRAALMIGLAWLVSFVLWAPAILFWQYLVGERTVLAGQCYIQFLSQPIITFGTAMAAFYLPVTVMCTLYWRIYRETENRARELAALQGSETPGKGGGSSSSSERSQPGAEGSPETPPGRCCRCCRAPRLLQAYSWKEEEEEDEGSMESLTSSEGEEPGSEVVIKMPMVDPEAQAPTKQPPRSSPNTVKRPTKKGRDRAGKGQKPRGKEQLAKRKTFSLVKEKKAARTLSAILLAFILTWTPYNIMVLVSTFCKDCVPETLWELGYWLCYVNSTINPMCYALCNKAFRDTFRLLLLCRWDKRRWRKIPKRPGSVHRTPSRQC

[10] = Fraction unbound in C57Bl/6 mouse plasma at 0.1 mg/kg, sc after 30 mins; type: ADME, organism-based
[11] = Total plasma clearance in dog at 1 mg/kg, iv administered as 5 mins infusion; type: ADME, organism-based, Canis lupus familiaris
[12] = AUC in mouse at 1 mg/kg, iv administered as 5 mins infusion; type: ADME, organism-based; conditions: in vivo
[13] = biological target: Neuronal acetylcholine receptor; alpha4/beta2 (Rattus norvegicus, UniProt P09483+P12390); test: Agonist activity at rat alpha4beta2 nAChR expressed in HEK293 cells assessed as increase in Ca2+ flux by Fluo-4 AM dye based FLIPR assay; type: cell-based
[14] = Volume of distribution at steady state in mouse at 1 mg/kg, iv administered as 5 mins infusion; type: ADME, organism-based; conditions: in vivo, read-out: Vdss
[15] = biological target: Muscarinic acetylcholine receptor M4 (Homo sapiens) (UniProt P08173); test: Activity at human muscarinic M4 receptor
Sequence of Muscarinic acetylcholine receptor M4 (Homo sapiens) (P08173 whole entry, the tested form may be a part): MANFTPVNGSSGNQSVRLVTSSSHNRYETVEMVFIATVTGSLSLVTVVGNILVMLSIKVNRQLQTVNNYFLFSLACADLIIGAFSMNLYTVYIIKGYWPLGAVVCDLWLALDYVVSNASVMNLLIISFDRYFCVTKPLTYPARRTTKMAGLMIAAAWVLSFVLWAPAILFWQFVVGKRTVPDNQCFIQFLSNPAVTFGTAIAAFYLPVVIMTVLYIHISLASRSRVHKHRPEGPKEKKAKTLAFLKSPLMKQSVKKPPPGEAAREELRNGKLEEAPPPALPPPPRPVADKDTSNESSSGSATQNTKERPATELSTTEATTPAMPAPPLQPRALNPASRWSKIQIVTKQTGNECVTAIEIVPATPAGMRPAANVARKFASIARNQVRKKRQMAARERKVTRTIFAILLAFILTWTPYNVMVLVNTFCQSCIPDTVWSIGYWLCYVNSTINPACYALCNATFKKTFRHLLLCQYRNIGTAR

[16] = Volume of distribution at steady state in cynomolgus monkey at 1 mg/kg, iv administered as 5 mins infusion; type: ADME, organism-based, Macaca fascicularis; conditions: in vivo, read-out: Vdss
[17] = Fraction unbound in human plasma at 10 uM after 4 hrs by equilibrium dialysis method; type: ADME, cell-free
[18] = Fraction unbound in dog plasma at 10 uM after 4 hrs by equilibrium dialysis method; type: ADME, cell-free, Canis lupus familiaris
[19] = biological target: T3, Neuronal acetylcholine receptor subunit alpha-7 (Homo sapiens, UniProt P36544); test: Agonist activity at human alpha7 nAChR expressed in HEK293 cells co-expressing human RIC3 assessed as induction of peak current amplitutde at 10 uM at holding potential of -90 mV by whole-cell voltage clamp electrophysiology method relative to acetylcholine; type: cell-based
T3 sequence (P36544 whole entry): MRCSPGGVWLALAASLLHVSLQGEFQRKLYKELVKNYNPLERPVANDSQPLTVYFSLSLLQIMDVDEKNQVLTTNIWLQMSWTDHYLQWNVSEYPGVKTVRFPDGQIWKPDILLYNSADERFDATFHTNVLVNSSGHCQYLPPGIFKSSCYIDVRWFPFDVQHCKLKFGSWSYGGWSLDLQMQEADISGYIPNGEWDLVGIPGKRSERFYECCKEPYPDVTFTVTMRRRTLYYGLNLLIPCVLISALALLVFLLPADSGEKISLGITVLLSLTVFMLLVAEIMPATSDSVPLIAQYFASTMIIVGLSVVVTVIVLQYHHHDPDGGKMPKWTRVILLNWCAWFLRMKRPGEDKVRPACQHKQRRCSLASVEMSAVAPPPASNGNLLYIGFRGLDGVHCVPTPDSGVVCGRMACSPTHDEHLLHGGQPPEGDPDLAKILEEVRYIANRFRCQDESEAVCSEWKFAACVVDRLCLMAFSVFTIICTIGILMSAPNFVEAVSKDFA

[20] = biological target: T1, Neuronal acetylcholine receptor subunit alpha-7; test: Agonist activity at rat alpha7 nAChR expressed in HEK293 cells assessed as increase in Ca2+ flux by Fluo-4 AM dye based FLIPR assay; type: cell-based
[21] = biological target: Muscarinic acetylcholine receptor M3 (Homo sapiens) (UniProt P20309); test: Activity at human muscarinic M3 receptor
[22] = Half life in dog at 1 mg/kg, iv administered as 5 mins infusion; type: ADME, organism-based, Canis lupus familiaris; conditions: in vivo
[23] = AUC in dog at 5 mg/kg, po; type: ADME, organism-based, Canis lupus familiaris; conditions: in vivo
[24] = biological target: Muscarinic acetylcholine receptor M5 (Homo sapiens) (UniProt P08912); test: Activity at human muscarinic M5 receptor
Sequence of Muscarinic acetylcholine receptor M5 (Homo sapiens) (P08912 whole entry): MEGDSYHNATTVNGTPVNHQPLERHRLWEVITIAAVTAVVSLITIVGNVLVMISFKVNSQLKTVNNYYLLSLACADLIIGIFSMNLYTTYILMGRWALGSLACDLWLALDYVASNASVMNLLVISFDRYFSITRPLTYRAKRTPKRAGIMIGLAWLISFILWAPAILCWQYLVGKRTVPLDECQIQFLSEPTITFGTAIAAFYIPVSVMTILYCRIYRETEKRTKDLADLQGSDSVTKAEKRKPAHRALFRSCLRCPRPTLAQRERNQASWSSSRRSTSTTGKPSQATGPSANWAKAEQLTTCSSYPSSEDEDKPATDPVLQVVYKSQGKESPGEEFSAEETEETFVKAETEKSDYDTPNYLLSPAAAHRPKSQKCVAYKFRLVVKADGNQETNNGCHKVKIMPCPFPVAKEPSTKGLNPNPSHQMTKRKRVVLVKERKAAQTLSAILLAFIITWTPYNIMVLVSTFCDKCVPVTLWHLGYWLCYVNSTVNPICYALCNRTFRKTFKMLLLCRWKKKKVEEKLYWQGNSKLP

[25] = Fraction unbound in mouse plasma at 10 uM after 4 hrs by equilibrium dialysis method; type: ADME, cell-free
Cytochrome P450 3A4 [26] = biological target: T2, Cytochrome P450 3A4; test: Inhibition of recombinant human CYP3A4 using fluorogenic substrate BFC preincubated for 30 mins and measured after 20 to 60 mins in presence of NADPH regenerating system by fluorescence assay; type: ADME
[27] = biological target: T3, Neuronal acetylcholine receptor subunit alpha-7; test: Agonist activity at human alpha7 nAChR expressed in HEK293 cells co-expressing human RIC3 assessed as area under current curve at holding potential of -90 mV by whole-cell voltage clamp electrophysiology method; type: cell-based
[28] = Half life in rat at 1 mg/kg, iv administered as 5 mins infusion; type: ADME, organism-based; conditions: in vivo
[29] = Drug level in C57Bl/6 mouse plasma at 0.1 mg/kg, sc after 30 mins; type: ADME, organism-based
[30] = Ratio of drug level in mouse brain to plasma at 1 mg/kg, iv administered as 5 mins infusion after 30 mins; type: ADME, organism-based; conditions: brain and plasma, read-out: BPR
[31] = Metabolic stability in monkey liver microsomes assessed as compound remaining at 3 uM after 10 mins by LC-MS/MS analysis; type: ADME, Macaca mulatta, microsome; conditions: rhesus monkey, read-out: Stability
[32] = biological target: T3, Neuronal acetylcholine receptor subunit alpha-7; test: Agonist activity at human alpha7 nAChR expressed in HEK293 cells co-expressing human RIC3 assessed as area under current curve at 10 uM at holding potential of -90 mV by whole-cell voltage clamp electrophysiology method relative to acetylcholine; type: cell-based
[33] = Oral bioavailability in rat at 10 mg/kg; type: ADME, organism-based; conditions: in vivo
Mus musculus = test: Cognitive enhancing effect in C57Bl/6 mouse assessed as time spent on exploring novel objects at 0.1 to 10 mg/kg, sc administered 30 mins prior to test and measured after 24 hrs by novel object recognition test; type: functional, organism-based
[34] = Metabolic stability in human liver microsomes assessed as compound remaining at 3 uM after 10 mins by LC-MS/MS analysis; type: ADME, microsome; conditions: read-out: Stability
[35] = biological target: Neuronal acetylcholine receptor; alpha3/beta4 (Rattus norvegicus, UniProt P04757+P12392); test: Agonist activity at rat alpha3beta4 nAChR expressed in HEK293 cells assessed as increase in Ca2+ flux by Fluo-4 AM dye based FLIPR assay; type: cell-based
Sequence of Neuronal acetylcholine receptor; alpha3/beta4 (P04757 whole entry, the tested form may be a part): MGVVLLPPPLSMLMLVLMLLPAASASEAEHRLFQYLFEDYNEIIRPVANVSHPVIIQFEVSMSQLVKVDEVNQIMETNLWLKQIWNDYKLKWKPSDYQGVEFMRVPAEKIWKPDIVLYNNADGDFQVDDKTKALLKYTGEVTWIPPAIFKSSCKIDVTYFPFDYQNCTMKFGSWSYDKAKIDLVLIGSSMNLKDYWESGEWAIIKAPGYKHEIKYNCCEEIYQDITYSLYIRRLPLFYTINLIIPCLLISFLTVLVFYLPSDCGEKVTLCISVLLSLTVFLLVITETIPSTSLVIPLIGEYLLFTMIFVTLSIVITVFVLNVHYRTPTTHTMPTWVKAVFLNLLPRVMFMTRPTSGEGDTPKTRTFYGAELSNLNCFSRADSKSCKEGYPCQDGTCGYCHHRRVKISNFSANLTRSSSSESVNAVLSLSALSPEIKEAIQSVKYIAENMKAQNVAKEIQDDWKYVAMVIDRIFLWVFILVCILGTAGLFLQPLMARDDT
Sequence of Neuronal acetylcholine receptor; alpha3/beta4 (P12392 whole entry, the tested form may be a part): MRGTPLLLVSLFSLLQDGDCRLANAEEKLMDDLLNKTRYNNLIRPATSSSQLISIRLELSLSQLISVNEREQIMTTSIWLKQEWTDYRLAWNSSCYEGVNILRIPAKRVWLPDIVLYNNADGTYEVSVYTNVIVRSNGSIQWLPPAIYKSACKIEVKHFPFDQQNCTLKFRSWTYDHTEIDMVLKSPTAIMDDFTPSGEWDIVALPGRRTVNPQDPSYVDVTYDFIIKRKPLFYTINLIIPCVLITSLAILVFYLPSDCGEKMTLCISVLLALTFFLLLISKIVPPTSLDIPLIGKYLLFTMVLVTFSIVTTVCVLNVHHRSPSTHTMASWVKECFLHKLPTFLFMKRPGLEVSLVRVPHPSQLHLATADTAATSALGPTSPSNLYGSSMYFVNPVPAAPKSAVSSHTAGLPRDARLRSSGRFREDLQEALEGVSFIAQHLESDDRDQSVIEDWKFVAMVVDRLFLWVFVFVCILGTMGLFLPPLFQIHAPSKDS

[36] = Volume of distribution at steady state in rat at 1 mg/kg, iv administered as 5 mins infusion; type: ADME, organism-based; conditions: in vivo, read-out: Vdss
[37] = Metabolic stability in dog liver microsomes assessed as compound remaining at 3 uM after 10 mins by LC-MS/MS analysis; type: ADME, Canis lupus familiaris, microsome; conditions: read-out: Stability
[38] = Cmax in cynomolgus monkey at 5 mg/kg, po; type: ADME, organism-based, Macaca fascicularis; parameters: dose 5 mg/kg, route oral; conditions: in vivo
[39] = Fraction unbound in rat plasma at 10 uM after 4 hrs by equilibrium dialysis method; type: ADME, cell-free
Cytochrome P450 2D6 = Cytochrome P450 2D6 (Homo sapiens, UniProt P10635); test: Inhibition of recombinant human CYP2D6 using fluorogenic substrate preincubated for 30 mins and measured after 20 to 60 mins in presence of NADPH regenerating system by fluorescence assay; type: ADME
Sequence of Cytochrome P450 2D6 (P10635 whole entry): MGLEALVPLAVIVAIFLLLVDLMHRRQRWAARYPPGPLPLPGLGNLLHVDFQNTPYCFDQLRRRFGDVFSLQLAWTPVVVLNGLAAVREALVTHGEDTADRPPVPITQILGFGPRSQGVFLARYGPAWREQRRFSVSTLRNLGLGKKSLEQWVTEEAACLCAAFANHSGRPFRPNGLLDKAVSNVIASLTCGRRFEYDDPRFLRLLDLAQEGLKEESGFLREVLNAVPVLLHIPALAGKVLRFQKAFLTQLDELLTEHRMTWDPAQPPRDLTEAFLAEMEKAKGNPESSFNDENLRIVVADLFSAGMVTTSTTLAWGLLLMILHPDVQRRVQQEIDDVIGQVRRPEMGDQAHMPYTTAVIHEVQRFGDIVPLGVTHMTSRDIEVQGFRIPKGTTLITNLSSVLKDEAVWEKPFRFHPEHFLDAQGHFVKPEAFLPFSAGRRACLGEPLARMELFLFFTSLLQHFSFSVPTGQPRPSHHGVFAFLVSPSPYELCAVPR

[40] = AUC in cynomolgus monkey at 5 mg/kg, po; type: ADME, organism-based, Macaca fascicularis; conditions: in vivo
[41] = Cmax in mouse at 10 mg/kg, po; type: ADME, organism-based; parameters: dose 10 mg/kg, route oral; conditions: in vivo
[42] = Oral bioavailability in dog at 5 mg/kg; type: ADME, organism-based, Canis lupus familiaris; conditions: in vivo
[43] = Cmax in dog at 5 mg/kg, po; type: ADME, organism-based, Canis lupus familiaris; parameters: dose 5 mg/kg, route oral; conditions: in vivo

c1cn(-c2cc(NC3=NC[C@@]4(CN5CCC4CC5)O3)ncn2)cn1
bioavailability [1]: 70%
EC50 [2]: 0.1 µM
IC50 (Cytochrome P450 3A4 [3]): > 30 µM
clearance [4]: 70 mL/min/kg
IC50 (Cytochrome P450 2B6): > 30 µM
remaining at 10 min, 3 µM [5]: 93%
bioavailability [6]: 45%
remaining at 10 min, 3 µM [7]: 95%
half-life [8]: 1.1 h
Activity [9]: inactive
fraction unbound at 0.5 h [10]: 0.84
clearance [11]: 15 mL/min/kg
AUC at 5 min [12]: 0.53 µM·h
EC50 [13]: > 100 µM
Vd [14]: 7 L/kg
Activity [15]: inactive
Vd [16]: 5.7 L/kg
fraction unbound at 4 h, 10 µM [17]: 0.87
fraction unbound at 4 h, 10 µM [18]: 0.93
%max [19]: 24%
EC50 [20]: 0.023 µM
Activity [21]: inactive
half-life [22]: 5.5 h
AUC [23]: 19 µM·h
Activity [24]: inactive
fraction unbound at 4 h, 10 µM [25]: 0.84
IC50 (Cytochrome P450 3A4 [26]): > 30 µM
EC50 [27]: 0.3 µM
half-life [28]: 0.7 h
concentration at 0.5 h [29]: 52 nM
Kp at 0.5 h [30]: 0.21
remaining at 10 min, 3 µM [31]: 100%
%max [32]: 78%
bioavailability [33]: 97%
Activity (Mus musculus): Active
remaining at 10 min, 3 µM [34]: 91%
EC50 [35]: > 100 µM
Vd [36]: 2.9 L/kg
remaining at 10 min, 3 µM [37]: 98%
Cmax [38]: 1300 nM
fraction unbound at 4 h, 10 µM [39]: 0.87
IC50 (Cytochrome P450 2D6): > 30 µM
AUC [40]: 11 µM·h
Cmax [41]: 550 nM
bioavailability [42]: 100%
Cmax [43]: 3200 nM
